Test results taken from the Kinase Knowledgebase extract (Sharma et al. 2016).

Target: MAPK14 (human) (UniProt Q16539)
Test: Assessment of MAPK14 Kinase Activity

MAPK14 (human), sequence (Q16539 whole entry, looked up): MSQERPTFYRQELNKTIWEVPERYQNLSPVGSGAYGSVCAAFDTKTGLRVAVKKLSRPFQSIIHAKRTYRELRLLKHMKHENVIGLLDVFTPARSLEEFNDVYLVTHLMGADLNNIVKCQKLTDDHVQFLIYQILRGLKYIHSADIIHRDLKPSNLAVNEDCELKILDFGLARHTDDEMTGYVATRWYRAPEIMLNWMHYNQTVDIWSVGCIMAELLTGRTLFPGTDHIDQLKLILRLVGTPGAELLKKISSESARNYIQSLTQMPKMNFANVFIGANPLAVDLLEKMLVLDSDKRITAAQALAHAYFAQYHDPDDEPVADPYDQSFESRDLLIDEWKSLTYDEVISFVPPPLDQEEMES

First: Cc1cccc(-c2nc(C)sc2-c2ccncc2)c1
Second: Cc1cccc(-c2nc(N)sc2-c2ccncc2)c1
The IC50 of the first is 3.7-fold higher: 27 nM for the first, 7.3 nM for the second.

Compared with `Cc1cccc(-c2nc(-c3ccc(C(=O)O)cc3)sc2-c2ccncc2)c1`, `Cc1cccc(-c2nc(-c3ccc(O)cc3)sc2-c2ccncc2)c1` is 40-fold lower in IC50: 210 nM for the first, 5.3 nM for the second. The second is the more potent here.

`COc1ccc(-c2nc(NC(C)=O)sc2-c2ccncc2)cc1` and `CC(=O)Nc1nc(-c2ccc(C)cc2)c(-c2ccncc2)s1` are within 1.5-fold of each other in IC50: 74 nM for the first, 76 nM for the second.

`CC(=O)Nc1nc(-c2ccccc2Cl)c(-c2ccncc2)s1` and `CC(=O)Nc1nc(-c2ccccc2C)c(-c2ccncc2)s1` are within 1.5-fold of each other in IC50: 260 nM for the first, 340 nM for the second.

Compared with `Cc1cccc(-c2nc(-c3ccc([S+](C)[O-])cc3)sc2-c2ccncc2)c1` (centres undefined), `Cc1ccc(-c2nc(-c3cccc(C)c3)c(-c3ccncc3)s2)cc1` is 2.7-fold higher in IC50: 15 nM for the first, 41 nM for the second.

First: COc1cccc(-c2nc(NC(C)=O)sc2-c2ccncc2)c1
Second: CC(=O)Nc1nc(-c2cccc(C)c2)c(-c2ccncc2)s1
The IC50 of the first is 8.2-fold higher: 73 nM for the first, 8.9 nM for the second. The second is the more potent here.

First: CC(=O)N(C)c1nc(-c2cccc(C)c2)c(-c2ccncc2)s1
Second: Cc1cccc(-c2nc(C(C)(C)C)sc2-c2ccncc2)c1
The IC50 of the first is 1.5-fold higher: 48 nM for the first, 31 nM for the second. The second is the more potent here.

Compared with `CC(=O)Nc1nc(-c2cccc(Cl)c2)c(-c2ccncc2)s1`, `CC(=O)Nc1nc(-c2cccc(F)c2)c(-c2ccncc2)s1` is 3.3-fold higher in IC50: 43 nM for the first, 140 nM for the second.

Going from `CSc1ccc(-c2nc(-c3cccc(C)c3)c(-c3ccncc3)s2)cc1` to `Cc1cccc(-c2nc(-c3cccc(C)c3)c(-c3ccncc3)s2)c1`, the IC50 rises from 22 nM to 74 nM (3.4-fold). The first is the more potent here.

Going from `CC(=O)Nc1nc(-c2ccc(Cl)cc2)c(-c2ccncc2)s1` to `COc1ccccc1-c1nc(NC(C)=O)sc1-c1ccncc1`, the IC50 rises from 45 nM to 1300 nM (29-fold).

First: CS(=O)(=O)c1ccc(-c2nc(-c3ccc(F)cc3)c(-c3ccncc3)s2)cc1
Second: Cc1cccc(-c2nc(-c3ccccc3)sc2-c2ccncc2)c1
The IC50 of the first is 3.9-fold lower: 51 nM for the first, 200 nM for the second.

Going from `Cc1cccc(-c2nc(-c3ccccc3C)sc2-c2ccncc2)c1` to `CCc1ccc(-c2nc(-c3cccc(C)c3)c(-c3cc[n+]([O-])cc3)s2)cc1`, the IC50 rises from 69 nM to 1700 nM (25-fold).
